Where two headings read alike, the source gives them in different places.

The text below walks through data of publication PMC4893628, “Chalcone-based Selective Inhibitors of a C4 Plant Key Enzyme as Novel Potential Herbicides” (Scientific Reports, 2016).

The target in one test is T1, F. pringlei PEPC (Flaveria pringlei, UniProt Q01647).
T1 construct: the full-length ppcA gene of PEPC from F. trinervia (EMBL-Bank X61304) and F. pringlei (EMBL-Bank Z48966) were cloned in pETEV16b; made in house; host or cells: Escherichia coli BL21-Gold(DE3)
T1 sequence (Q01647 1-967): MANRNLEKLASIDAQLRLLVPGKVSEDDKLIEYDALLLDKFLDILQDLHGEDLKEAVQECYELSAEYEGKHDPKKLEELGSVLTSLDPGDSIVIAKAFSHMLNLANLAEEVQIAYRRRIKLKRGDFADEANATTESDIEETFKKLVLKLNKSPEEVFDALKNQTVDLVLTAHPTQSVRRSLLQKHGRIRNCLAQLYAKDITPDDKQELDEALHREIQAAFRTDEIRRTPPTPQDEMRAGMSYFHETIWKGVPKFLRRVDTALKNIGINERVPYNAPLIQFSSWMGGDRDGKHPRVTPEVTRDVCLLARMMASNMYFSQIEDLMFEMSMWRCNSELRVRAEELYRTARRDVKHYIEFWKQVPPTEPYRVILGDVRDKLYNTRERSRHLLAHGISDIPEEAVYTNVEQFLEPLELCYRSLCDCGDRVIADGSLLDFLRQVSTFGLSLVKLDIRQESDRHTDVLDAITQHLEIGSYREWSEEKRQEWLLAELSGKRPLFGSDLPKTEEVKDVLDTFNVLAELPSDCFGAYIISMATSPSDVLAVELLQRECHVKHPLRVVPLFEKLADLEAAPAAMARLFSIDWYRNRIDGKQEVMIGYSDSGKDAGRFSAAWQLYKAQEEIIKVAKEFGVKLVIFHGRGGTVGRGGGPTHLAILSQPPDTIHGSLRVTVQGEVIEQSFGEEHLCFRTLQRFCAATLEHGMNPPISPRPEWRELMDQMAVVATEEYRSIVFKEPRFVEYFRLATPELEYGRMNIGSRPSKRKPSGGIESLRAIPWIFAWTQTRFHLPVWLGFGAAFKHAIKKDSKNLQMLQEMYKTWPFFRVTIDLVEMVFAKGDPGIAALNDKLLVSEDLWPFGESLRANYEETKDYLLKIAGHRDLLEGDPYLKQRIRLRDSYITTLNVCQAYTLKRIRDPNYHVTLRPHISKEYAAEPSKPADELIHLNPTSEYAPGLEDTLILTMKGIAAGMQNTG
Description: PEPC coupled spectrophotometric assay, C3 PEPC. The test is classed as biochemical. Here is the method:
The IC50 values of small molecule compounds on F. pringlei and F. trinervia PEPCs were determined using PEPC coupled spectrophotometric assay. The amount of NADH oxidized by NADH-malate dehydrogenase was measured by the decrease in absorbance at 340 nm in a Beckman DU-800 spectrophotometer, thus the value is in proportion to the corresponding substrate conversion of the enzyme. The reaction mixture included the PEPC enzymes (0.05 U), NADH (150 μM), malate dehydrogenase (2 U) and different concentration of compounds in the buffer containing 50 mM HEPES/KOH pH 7.5, 10 mM MgCl2, 10 mM KHCO3 in a final volume of 600 μl at 25 °C. The reactions were started by adding two folds of the Km value of PEP for each enzyme. The data were analyzed using GraFit (Erithacus Software, UK).

The target of test [1] is T2, wild-type C4 PEPC from F. trinervia (Flaveria trinervia, UniProt P30694).
T2 construct: the full-length ppcA gene of PEPC from F. trinervia (EMBL-Bank X61304); made in house; host or cells: Escherichia coli BL21(DE3)
T2 sequence (P30694 1-966): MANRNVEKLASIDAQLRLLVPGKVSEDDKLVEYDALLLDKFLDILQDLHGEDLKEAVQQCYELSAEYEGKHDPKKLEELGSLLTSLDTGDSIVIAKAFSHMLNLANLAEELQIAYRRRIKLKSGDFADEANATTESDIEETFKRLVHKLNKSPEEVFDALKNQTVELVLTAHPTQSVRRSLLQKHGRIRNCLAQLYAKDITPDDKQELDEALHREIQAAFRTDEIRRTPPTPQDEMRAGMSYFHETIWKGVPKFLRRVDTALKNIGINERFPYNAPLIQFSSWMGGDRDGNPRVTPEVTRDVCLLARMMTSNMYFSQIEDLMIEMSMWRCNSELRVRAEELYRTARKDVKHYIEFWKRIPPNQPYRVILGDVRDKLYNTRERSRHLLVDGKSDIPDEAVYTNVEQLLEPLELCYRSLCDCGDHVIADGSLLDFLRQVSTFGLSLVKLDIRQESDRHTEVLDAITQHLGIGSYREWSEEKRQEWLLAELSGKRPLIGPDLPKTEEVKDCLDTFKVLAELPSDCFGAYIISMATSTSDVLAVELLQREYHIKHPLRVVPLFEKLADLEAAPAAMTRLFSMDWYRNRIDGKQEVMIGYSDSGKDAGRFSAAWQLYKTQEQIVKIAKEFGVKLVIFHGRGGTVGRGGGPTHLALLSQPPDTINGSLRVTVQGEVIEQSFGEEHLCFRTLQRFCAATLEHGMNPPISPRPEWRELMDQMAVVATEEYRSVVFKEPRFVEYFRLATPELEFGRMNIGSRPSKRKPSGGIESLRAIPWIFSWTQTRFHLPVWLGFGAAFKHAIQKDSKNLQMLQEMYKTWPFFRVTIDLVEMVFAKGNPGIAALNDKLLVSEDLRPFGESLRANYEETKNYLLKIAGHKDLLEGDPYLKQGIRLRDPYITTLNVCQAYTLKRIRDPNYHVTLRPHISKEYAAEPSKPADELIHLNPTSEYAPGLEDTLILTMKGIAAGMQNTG
Description: Isothermal titration calorimetry, wild-type C4 PEPC. The test is classed as binding. As for the experimental part:
(§1) The binding affinities between small molecule compounds and PEPC enzymes were measured using a MicroCal iTC200 calorimeter (GE Healthcare). 18 injections (2 μl each) of 200 μM compound were injected into a sample cell containing 20 uM PEPC at 25 °C. The buffer of the compounds and the enzymes contained 50 mM Tris/HCl pH 7.5, 150 mM NaCl, 10 mM MgCl2. The data were analyzed with one-site-binding fitting using Origin software (MicroCal Inc.) to calculate the dissociation constant (Kd) of the small molecule inhibitors.

The target in another test is C4 PEPC mutant G884R (Flaveria trinervia, UniProt P30694, G884R). In words: Isothermal titration calorimetry, mutant G884R. Type of test: binding. Here is the method: as §1
Sequence of C4 PEPC mutant G884R (P30694 whole entry G884R): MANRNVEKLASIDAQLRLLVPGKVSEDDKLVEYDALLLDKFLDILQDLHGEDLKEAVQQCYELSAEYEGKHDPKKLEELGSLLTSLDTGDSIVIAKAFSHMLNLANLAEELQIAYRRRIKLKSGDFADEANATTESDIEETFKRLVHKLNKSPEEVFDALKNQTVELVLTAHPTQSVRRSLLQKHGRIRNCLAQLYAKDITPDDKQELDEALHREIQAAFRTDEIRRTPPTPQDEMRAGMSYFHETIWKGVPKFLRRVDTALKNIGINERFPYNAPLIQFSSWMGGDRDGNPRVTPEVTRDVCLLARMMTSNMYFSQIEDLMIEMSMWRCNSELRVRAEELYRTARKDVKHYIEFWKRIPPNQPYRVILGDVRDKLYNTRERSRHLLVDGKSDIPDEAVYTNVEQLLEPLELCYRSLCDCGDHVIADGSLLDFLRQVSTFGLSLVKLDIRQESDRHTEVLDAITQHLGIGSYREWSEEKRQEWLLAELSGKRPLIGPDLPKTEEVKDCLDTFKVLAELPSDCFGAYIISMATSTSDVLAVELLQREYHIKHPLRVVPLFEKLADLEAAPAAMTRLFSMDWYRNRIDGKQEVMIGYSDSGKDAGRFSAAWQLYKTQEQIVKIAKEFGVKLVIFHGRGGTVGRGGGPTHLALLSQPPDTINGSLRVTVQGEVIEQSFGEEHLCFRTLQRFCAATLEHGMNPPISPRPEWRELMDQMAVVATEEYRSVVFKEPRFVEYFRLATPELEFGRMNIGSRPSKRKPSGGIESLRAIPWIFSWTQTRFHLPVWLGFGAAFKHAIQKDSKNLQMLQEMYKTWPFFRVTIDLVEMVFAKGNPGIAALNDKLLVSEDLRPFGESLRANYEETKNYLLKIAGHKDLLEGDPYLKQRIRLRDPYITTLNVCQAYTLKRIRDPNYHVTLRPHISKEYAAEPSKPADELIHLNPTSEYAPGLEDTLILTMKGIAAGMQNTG
Test [2] concerns human breast cancer cells. On the set-up: method as in PMID 11720850. Conditions: higher; cited from earlier work.
A further test has as its system B. napus. Description: Chlorophyll fluorescence measurements, B. napus. The test is classed as in vivo, Brassica napus. To be noted: 2 mM.
Setting [3] is: read-out: IC50 F. pringlei PEPC.

`O=C(/C=C/c1ccccc1)c1ccccc1` [Compound 1, trans-Chalcone] had a half-maximal inhibitory concentration (IC50) against F. pringlei PEPC (IC50 F. pringlei PEPC) of 119 ± 4.6 µM.
As for `O=C(/C=C/c1ccccc1)c1ccccc1O` [Compound 2, 2′-Hydroxychalcone], half-maximal inhibition against F. pringlei PEPC (IC50 F. pringlei PEPC) (IC50) was put at 76.3 ± 1.9 µM.
On to `O=C(/C=C/c1ccc(O)cc1)c1ccccc1O` [Compound 3, 2′,4-Dihydroxychalcone], for which the IC50 on F. pringlei PEPC (setting [3]) came to 64.2 ± 2.8 µM.
On the same count and under the same terms, to `O=C(/C=C/c1ccccc1)c1ccc(O)cc1O` [Compound 4, 2′,4′-Dihydroxychalcone] belongs 53 ± 1.1 µM; to `O=C(/C=C/c1ccccc1)c1cc(O)ccc1O` [Compound 5, 2′,5′-Dihydroxychalcone], 105 ± 4.6 µM.
Compound `O=C(/C=C/c1ccc(O)cc1)c1ccc(O)cc1O` [Compound 6, 2′,4′,4-Trihydroxychalcone] had an IC50 at F. pringlei PEPC (IC50 F. pringlei PEPC) of 57.8 ± 1.1 µM.
For `O=C(/C=C/c1ccccc1O)c1ccc(O)cc1O` [Compound 7, 2′,4′,2-Trihydroxychalcone], the IC50 at F. pringlei PEPC (setting [3]) amounted to 64.4 ± 1.1 µM.
As to `O=C(/C=C/c1ccc(O)c(O)c1)c1ccc(O)cc1O` [Compound 8, 2′,4′,3,4-Tetrahydroxy-chalcone], the Kd in test [1] is 0.38 µM; at C4 PEPC mutant G884R, 8.6 µM.
On to `O=C(/C=C/c1cc(O)c(O)c(O)c1)c1ccc(O)cc1O` [Compound 9, 2′,4′,3,4,5-Pentahydroxychalcone], for which the Kd in test [1] (ITC, wild-type (wtFt), no aspartate, read-out: Kd) came to 0.46 µM; on C4 PEPC mutant G884R it was 4.8 µM.
As for `O=C(/C=C/c1ccccc1)c1ccc(O)c(O)c1O` [Compound 10, 2′,3′,4′-Trihydroxychalcone], the “antiproliferative IC50 relative to IC50 for inhibition of C4 PEPC” value in test [2] is ~ 5 fold.
With `O=C(/C=C/c1ccc(O)c(O)c1)c1c(O)cc(O)cc1O` [Compound 11, 2′,4′,6′,3,4-Pentahydroxy-chalcone], at F. pringlei PEPC (setting [3]), the IC50 worked out at 8.2 ± 0.3 µM.
As for `O=C(/C=C/c1ccc(O)c(O)c1)c1ccc(O)c(O)c1O` [Compound 12, 2′,3′,4′,3,4-Pentahydroxy-chalcone], the photosynthetic parameters result in the test on B. napus is listed as “no effect”. Also, the dissociation constant Kd in test [1] was 0.26 µM; on C4 PEPC mutant G884R it was 5.4 µM. For the same compound, in test [1] (ITC), the “weaker Kd at 0.5 mM aspartate in comparison to no aspartate” value is listed as ~ 5 fold. The compound also gave an IC50 at F. pringlei PEPC (IC50 F. pringlei PEPC) of 26.8 ± 3.5 µM.
